Among the data in ChEMBL document CHEMBL3352619, “Design, synthesis and biological evaluation of novel 6,7-disubstituted-4-phenoxyquinoline derivatives bearing 4-oxo-3,4-dihydrophthalazine-1-carboxamide moieties as c-Met kinase inhibitors” (Bioorg Med Chem, 2014) are IC50 values, retold here.

Experiment [1] can be described thus: Cytotoxicity against human H460 cells after 72 hrs by MTT assay. Conditions: NCI-H460, 72 h. On the technique in general: Formazan colour is commonly taken as a measure of viable cells.
For a further experiment, the system named is HT-29. Put plainly: Cytotoxicity against human HT-29 cells after 72 hrs by MTT assay. Conditions: HT-29, 72 h.
The next experiment has as its system MDA-MB-231. Put plainly: cells. Conditions: Homo sapiens, MDA-MB-231, 72 h.
Experiment [2] can be described thus: Cytotoxicity against human MKN45 cells after 72 hrs by MTT assay. Conditions: MKN-45, 72 h.

Molecules are shown by their SMILES.

For orientation: IC50 means the concentration that gives 50% inhibition.

Description for MDA-MB-231: Cytotoxicity against human MDA-MB-231 cells after 72 hrs by MTT assay

As to `COc1ccc(-n2nc(C(=O)Nc3ccc(Oc4ccnc5cc(OCCCN6CCCC6)c(OC)cc45)c(F)c3)c3ccccc3c2=O)cc1`, the half-maximal inhibitory concentration (IC50) in experiment [1] was 1650 nM; with HT-29 it was 2360 nM; in the experiment with MDA-MB-231, 3450 nM; in experiment [2], 1320 nM.

`COc1cc2c(Oc3ccc(NC(=O)c4nn(-c5ccccc5F)c(=O)c5ccccc45)cc3F)ccnc2cc1OCCCN1CCCCC1`: the half-maximal inhibitory concentration (IC50) in experiment [1] came to 160 nM; with HT-29, 630 nM; in the experiment with MDA-MB-231, 910 nM; in experiment [2] it was 350 nM.

`COc1cc2c(Oc3ccc(NC(=O)c4nn(-c5ccc(Br)cc5)c(=O)c5ccccc45)cc3F)ccnc2cc1OCCCN1CCC(C)CC1`: the 50% inhibitory concentration (IC50) in experiment [1] came out at 350 nM; in the experiment on HT-29 it was 920 nM; with MDA-MB-231, 1160 nM; in experiment [2], 330 nM.

Take `COc1ccc(-n2nc(C(=O)Nc3ccc(Oc4ccnc5cc(OCCCN6CCN(C)CC6)c(OC)cc45)c(F)c3)c3ccccc3c2=O)cc1`: the IC50 stood at 1110 nM in experiment [1], 3700 nM with HT-29, 3980 nM with MDA-MB-231 and 1320 nM in experiment [2].

`COc1cc2c(Oc3ccc(NC(=O)c4nn(-c5ccccc5Br)c(=O)c5ccccc45)cc3F)ccnc2cc1OCCCN1CCC(C)CC1`: the IC50 in experiment [1] was found to be 390 nM; in the experiment on HT-29, 950 nM; with MDA-MB-231, 1240 nM; in experiment [2], 510 nM.

For the molecule `COc1cc2c(Oc3ccc(NC(=O)c4nn(-c5ccccc5)c(=O)c5ccccc45)cc3F)ccnc2cc1OCCCN1CCN(C)CC1`, the half-maximal inhibitory concentration (IC50) in experiment [1] worked out at 450 nM; with HT-29, 1140 nM; in the experiment on MDA-MB-231 it was 1580 nM; in experiment [2], 620 nM.

For the molecule `COc1cc2c(Oc3ccc(NC(=O)c4nn(-c5ccccc5F)c(=O)c5ccccc45)cc3F)ccnc2cc1OCCCN1CCC(C)CC1`, the half-inhibitory concentration (IC50) was found to be 200 nM in experiment [1], 510 nM in the experiment with HT-29, 670 nM with MDA-MB-231 and 260 nM in experiment [2].

For `COc1ccc(-n2nc(C(=O)Nc3ccc(Oc4ccnc5cc(OCCCN6CCOCC6)c(OC)cc45)c(F)c3)c3ccccc3c2=O)cc1`, the IC50 stood at 1240 nM in experiment [1], 3360 nM in the experiment on HT-29, 3980 nM in the experiment on MDA-MB-231 and 1620 nM in experiment [2].

Turning to `COc1cc2c(Oc3ccc(NC(=O)c4nn(-c5ccc(Br)cc5)c(=O)c5ccccc45)cc3F)ccnc2cc1OCCCN1CCCCC1`, the IC50 in experiment [1] came out at 410 nM; in the experiment with HT-29 it was 770 nM; with MDA-MB-231, 1130 nM; in experiment [2], 500 nM.

As to `COc1cc2c(Oc3ccc(NC(=O)c4nn(-c5ccc([N+](=O)[O-])cc5)c(=O)c5ccccc45)cc3F)ccnc2cc1OCCCN1CCOCC1`, the IC50 came out at 1890 nM in experiment [1], 2520 nM with HT-29, 3480 nM with MDA-MB-231 and 1940 nM in experiment [2].

For the molecule `COc1cc2c(Oc3ccc(NC(=O)c4nn(-c5ccccc5F)c(=O)c5ccccc45)cc3F)ccnc2cc1OCCCN1CCCC1`, the concentration for half-maximal inhibition (IC50) in the experiment on HT-29 was found to be 400 nM; in experiment [2], 140 nM.

With `COc1cc2c(Oc3ccc(NC(=O)c4nn(-c5ccc(Br)cc5)c(=O)c5ccccc45)cc3F)ccnc2cc1OCCCN1CCCC1`, the IC50 in experiment [1] came out at 180 nM; in the experiment with HT-29, 670 nM; in the experiment on MDA-MB-231, 1160 nM; in experiment [2], 230 nM.

Regarding `COc1ccc(-n2nc(C(=O)Nc3ccc(Oc4ccnc5cc(OCCCN6CCCCC6)c(OC)cc45)c(F)c3)c3ccccc3c2=O)cc1`, the IC50 came to 840 nM in experiment [1], 1450 nM with HT-29, 2010 nM in the experiment with MDA-MB-231 and 950 nM in experiment [2].

Turning to `COc1cc2c(Oc3ccc(NC(=O)c4nn(-c5cccc(F)c5)c(=O)c5ccccc45)cc3F)ccnc2cc1OCCCN1CCCC1`, the IC50 stood at 460 nM in the experiment on HT-29 and 160 nM in experiment [2].

As to `COc1cc2c(Oc3ccc(NC(=O)c4nn(-c5ccc(F)cc5)c(=O)c5ccccc45)cc3F)ccnc2cc1OCCCN1CCC(C)CC1`, the half-inhibitory concentration (IC50) in experiment [1] was determined as 110 nM; in the experiment with HT-29, 330 nM; in the experiment with MDA-MB-231, 660 nM; in experiment [2] it was 130 nM.

Consider `COc1cc2c(Oc3ccc(NC(=O)c4nn(-c5ccccc5)c(=O)c5ccccc45)cc3F)ccnc2cc1OCCCN1CCCC1`, for which the 50% inhibitory concentration (IC50) in the experiment with HT-29 worked out at 980 nM; in experiment [2], 530 nM.

As for `COc1cc2c(Oc3ccc(NC(=O)c4nn(-c5ccccc5)c(=O)c5ccccc45)cc3F)ccnc2cc1OCCCN1CCCCC1`, the IC50 was 650 nM in experiment [1], 1310 nM in the experiment on HT-29, 1880 nM with MDA-MB-231 and 590 nM in experiment [2].

For the molecule `COc1cc2c(Oc3ccc(NC(=O)c4nn(-c5ccccc5Br)c(=O)c5ccccc45)cc3F)ccnc2cc1OCCCN1CCOCC1`, the concentration for half-maximal inhibition (IC50) in experiment [1] is 370 nM; in the experiment on HT-29, 680 nM; in the experiment on MDA-MB-231, 1560 nM; in experiment [2], 450 nM.

`COc1cc2c(Oc3ccc(NC(=O)c4nn(-c5ccc(Br)cc5)c(=O)c5ccccc45)cc3F)ccnc2cc1OCCCN1CCOCC1`: the concentration for half-maximal inhibition (IC50) in experiment [1] was 290 nM; in the experiment with HT-29, 710 nM; in the experiment with MDA-MB-231 it was 960 nM; in experiment [2], 340 nM.

Consider `COc1cc2c(Oc3ccc(NC(=O)c4nn(-c5ccccc5Br)c(=O)c5ccccc45)cc3F)ccnc2cc1OCCCN1CCCC1`, for which the IC50 was 320 nM in experiment [1], 850 nM with HT-29, 1020 nM in the experiment on MDA-MB-231 and 410 nM in experiment [2].

As to `COc1cc2c(Oc3ccc(NC(=O)c4nn(-c5ccccc5)c(=O)c5ccccc45)cc3F)ccnc2cc1OCCCN1CCOCC1`, the IC50 in experiment [1] came out at 580 nM; in the experiment on HT-29, 1380 nM; in the experiment on MDA-MB-231, 1230 nM; in experiment [2], 430 nM.

Regarding `COc1cc2c(Oc3ccc(NC(=O)c4nn(-c5ccccc5Br)c(=O)c5ccccc45)cc3F)ccnc2cc1OCCCN1CCN(C)CC1`, the IC50 stood at 290 nM in experiment [1], 1190 nM with HT-29, 1680 nM in the experiment on MDA-MB-231 and 400 nM in experiment [2].

Consider `COc1cc2c(Oc3ccc(NC(=O)c4nn(-c5ccccc5)c(=O)c5ccccc45)cc3F)ccnc2cc1OCCCN1CCC(C)CC1`, for which the IC50 in experiment [1] was 550 nM; in the experiment on HT-29, 1040 nM; in the experiment with MDA-MB-231 it was 1480 nM; in experiment [2] it was 580 nM.

Consider `COc1cc2c(Oc3ccc(NC(=O)c4nn(-c5ccc([N+](=O)[O-])cc5)c(=O)c5ccccc45)cc3F)ccnc2cc1OCCCN1CCC(C)CC1`, for which the IC50 turned out to be 1340 nM in experiment [1], 2450 nM in the experiment on HT-29, 4010 nM in the experiment on MDA-MB-231 and 1150 nM in experiment [2].

For the molecule `COc1cc2c(Oc3ccc(NC(=O)c4nn(-c5ccccc5F)c(=O)c5ccccc45)cc3F)ccnc2cc1OCCCN1CCN(C)CC1`, the half-inhibitory concentration (IC50) in experiment [1] turned out to be 230 nM; with HT-29, 480 nM; in the experiment on MDA-MB-231, 1050 nM; in experiment [2], 210 nM.

As to `COc1cc2c(Oc3ccc(NC(=O)c4nn(-c5ccc(F)cc5)c(=O)c5ccccc45)cc3F)ccnc2cc1OCCCN1CCN(C)CC1`, the results for the IC50 (with HT-29; in experiment [2]) were 320 nM and 150 nM, respectively.

Take `COc1cc2c(Oc3ccc(NC(=O)c4nn(-c5ccc(F)cc5)c(=O)c5ccccc45)cc3F)ccnc2cc1OCCCN1CCOCC1`: the IC50 in experiment [1] was 100 nM; in the experiment with HT-29, 260 nM; in the experiment on MDA-MB-231 it was 670 nM; in experiment [2], 90 nM.

Take `COc1cc2c(Oc3ccc(NC(=O)c4nn(-c5ccc([N+](=O)[O-])cc5)c(=O)c5ccccc45)cc3F)ccnc2cc1OCCCN1CCCCC1`: the 50% inhibitory concentration (IC50) is 1300 nM in experiment [1], 2170 nM in the experiment on HT-29, 2620 nM with MDA-MB-231 and 1140 nM in experiment [2].

Regarding `COc1cc2c(Oc3ccc(NC(=O)c4nn(-c5ccc([N+](=O)[O-])cc5)c(=O)c5ccccc45)cc3F)ccnc2cc1OCCCN1CCCC1`, the IC50 amounted to 1240 nM in experiment [1], 1760 nM with HT-29, 2980 nM with MDA-MB-231 and 1620 nM in experiment [2].

On to `COc1cc2c(Oc3ccc(NC(=O)c4nn(-c5ccc([N+](=O)[O-])cc5)c(=O)c5ccccc45)cc3F)ccnc2cc1OCCCN1CCN(C)CC1`, for which the 50% inhibitory concentration (IC50) worked out at 980 nM in experiment [1], 2560 nM in the experiment with HT-29, 3490 nM in the experiment with MDA-MB-231 and 1320 nM in experiment [2].

Turning to `COc1cc2c(Oc3ccc(NC(=O)c4nn(-c5ccc(F)cc5)c(=O)c5ccccc45)cc3F)ccnc2cc1OCCCN1CCCCC1`, the IC50 in the experiment on HT-29 is 290 nM; in experiment [2], 180 nM.

Take `COc1cc2c(Oc3ccc(NC(=O)c4nn(-c5cccc(F)c5)c(=O)c5ccccc45)cc3F)ccnc2cc1OCCCN1CCC(C)CC1`: the IC50 in experiment [1] was 190 nM; in the experiment on HT-29, 500 nM; in the experiment on MDA-MB-231, 860 nM; in experiment [2] it was 220 nM.

As for `COc1cc2c(Oc3ccc(NC(=O)c4nn(-c5ccccc5F)c(=O)c5ccccc45)cc3F)ccnc2cc1OCCCN1CCOCC1`, the half-maximal inhibitory concentration (IC50) in experiment [1] worked out at 190 nM; with HT-29 it was 470 nM; in the experiment with MDA-MB-231, 700 nM; in experiment [2], 150 nM.

On to `COc1cc2c(Oc3ccc(NC(=O)c4nn(-c5ccc(Br)cc5)c(=O)c5ccccc45)cc3F)ccnc2cc1OCCCN1CCN(C)CC1`, for which the IC50 in experiment [1] stood at 250 nM; with HT-29, 850 nM; in the experiment with MDA-MB-231, 1370 nM; in experiment [2], 350 nM.
